Data: PMC12406203 (Journal of Medicinal Chemistry, 2025)

Columns and labels:
human p38α MAPK = human p38α MAPK (Homo sapiens, UniProt Q16539); assay: biochemical
Procedure: The inhibitory activities against human p38α MAPK were evaluated using the commercially available ADP-Glo Kinase Assay (Promega, Inc., USA).
For the reference sample, 1% [v/v] DMSO replaced the inhibitor solution. […] The enzyme reaction was started with the addition of the enzyme solution. The DMSO concentration in the test solution was maintained at 1% [v/v]. The plate was incubated for 60 min. Then 5 μL of ADP-Glo reagent was added, followed by a 40 min incubation at room temperature. […] All incubations were performed at room temperature. The RA and IC50 values were calculated as described above (ChEs inhibitory potency).

[1] = Pharmacokinetic study in mice; details: for Cmax / MRT / Tmax / k el / Kp / AUC / AUC(0-t) / CL/F / Vd/F: male, CD-1, mouse, ip, 10 mg/kg; for Kp: brain/serum
Procedure: In this study, male CD-1 mice weighing 27–34 g housed in conditions of constant temperature with a 12:12 h light-dark cycle with free access to food and water were used. Both tested and reference compounds were suspended in 1% Tween in water for injection (Polpharma, Poland) and administered intraperitoneally (i.p.). The mice were sacrificed by decapitation under isoflurane anesthesia at different time points following compound administration. Brains were harvested at the same time points. Blood was allowed to clot at room temperature for 20 min, and serum was separated by centrifugation at 8 000g (Eppendorf MiniSpin centrifuge, Germany) for 10 min. All samples were stored at −80 °C until analysis.
The analytical workflow employed a Sciex QTRAP 4500 triple quadrupole mass spectrometer interfaced with an Exion LC AC HPLC system (Danaher Corporation, USA). Chromatographic separation was achieved on an XBridge C18 column (3 × 50 mm, 5 μm; Waters, USA), utilizing a mobile phase composed of acetonitrile and water both containing 0.1% formic acid. The column temperature was maintained at 40 °C, and a gradient elution protocol (Table S10) was implemented to ensure optimal analyte resolution and retention times. Mass spectrometric detection was conducted in unit resolution mode, with ion transitions specified in Table S11. […] Valsartan served as the internal standard and was monitored at m/z 436 → 207 (collision energy = 42 eV). Positive electrospray ionization (ESI+) was employed to enhance detection sensitivity. Ion path parameters (Table S11) were optimized via direct infusion of analyte solutions (7 μL/min) using a syringe pump. The optimized source conditions included an ion spray voltage of 5500 V, a source temperature of 450 °C, curtain gas pressure at 20 psi, and medium collision gas pressure. […] No significant matrix effects or stability concerns were observed during routine sample analysis. Data acquisition and processing were carried out using Analyst software version 1.7.
Serial dilutions were performed to generate working solutions ranging from 0.01 to 20 μg/mL, corresponding to final calibration concentrations of 0.001–2 μg/mL. For calibration curve construction, 5 μL of each working solution was spiked into 45 μL of the relevant biological matrix (serum or brain homogenate) and vortexed for 10 s. Sample preparation involved protein precipitation, in a 1:3 (v/v) ratio, using acetonitrile containing 0.1% formic acid and the internal standard. The mixtures were agitated for 10 min using an IKA Vibrax VXR shaker (Germany), followed by centrifugation at 8000 × g for 5 min (Eppendorf miniSpin, Germany). The resulting supernatants were transferred to chromatographic vials for analysis.
Brain tissues were homogenized in distilled water at a 1:4 (w/v) ratio using an ULTRA-TURRAX T10 basic homogenizer (IKA, Germany). Aliquots of brain homogenate or serum (50 μL) were subjected to protein precipitation in a 1:3 (v/v) ratio with acetonitrile containing 0.1% formic acid and the internal standard. The mixtures were agitated for 10 min using an IKA Vibrax VXR shaker (Germany), followed by centrifugation at 8000 × g for 5 min (Eppendorf miniSpin, Germany). The resulting supernatants were directly transferred to chromatographic vials for analysis. In cases where analyte concentrations in serum exceeded 20 μg/mL, samples were diluted with blank matrix prior to the deproteinization step. The autosampler was maintained at 15 °C, and a 1 μL aliquot was injected onto the analytical column.
Pharmacokinetic parameters were estimated using the noncompartmental analysis (NCA). The maximum concentration (C max) and the time to reach maximum concentration (t max) in serum and brain were obtained directly from the concentration versus time data.

[2] = tested on: RSK2 (Kin.Dom.1-N-terminal)
[3] = tested on: mice (locomotor activity); assay: Locomotor activity test; details: 10 mg/kg i.p.
Source text: The mice had unlimited access to food and water prior to the experiment. Specified conditions for the maintenance of mice were ensured throughout the experiment, including tree bedding (Transwior, Poland) and cage enrichment (tunnels, nesting material, wooden igloos, etc.). For behavioral tests, the mice were selected randomly; each group consisted of 7–10 mice. […] After in vivo tests, the animals were immediately euthanized, and their tissues were collected and stored for further ex vivo testing.
They were administered intraperitoneally (i.p.) 60 min before the acquisition trial of the PA, NOR, and MWM tasks.
The locomotor activity test was performed using activity cages (40 cm × 40 cm × 30 cm, supplied with IR beam emitters) (Activity Cage 7441, Ugo Basile, Italy) connected to a counter for the recording of light-beam interrupts. […] The animals’ movements (i.e., the number of light-beam crossings) were counted during the next 60 min of the test. Before the experiment, the mice were habituated to activity cages for 15 min.

hBChE = hBChE (Homo sapiens, UniProt P06276); assay: biochemical
Procedure: The inhibitory potencies of the compounds against the ChEs were determined using the method of Ellman. […] The final content of DMSO was always 1% [v/v]. […] The initial velocities in the presence (v i ) and absence (v 0) of the test compounds were calculated. The inhibitory potencies were expressed as the residual activities, according to RA = (v i – b)/(v 0 – b), where b is the blank value using phosphate buffer without ChEs. For IC50 determinations, at least seven different concentrations for each compound were used. The IC50 values were obtained by plotting the residual ChE activities against the applied inhibitor concentrations, with the experimental data fitted to a four-parameter logistic function (GraphPad Prism 10.0).

[4] = p38α MAPK IC50, IC50 expressed as concentration in ng/mL
[5] = p38α MAPK IC50 ± SEM, two independent experiments, each in triplicate
[6] = hBChE IC50 ± SEM, two independent experiments, each in triplicate
[7] = in vitro hBChE IC50, IC50 expressed as concentration in ng/mL

human p38α MAPK, sequence (Q16539 whole entry): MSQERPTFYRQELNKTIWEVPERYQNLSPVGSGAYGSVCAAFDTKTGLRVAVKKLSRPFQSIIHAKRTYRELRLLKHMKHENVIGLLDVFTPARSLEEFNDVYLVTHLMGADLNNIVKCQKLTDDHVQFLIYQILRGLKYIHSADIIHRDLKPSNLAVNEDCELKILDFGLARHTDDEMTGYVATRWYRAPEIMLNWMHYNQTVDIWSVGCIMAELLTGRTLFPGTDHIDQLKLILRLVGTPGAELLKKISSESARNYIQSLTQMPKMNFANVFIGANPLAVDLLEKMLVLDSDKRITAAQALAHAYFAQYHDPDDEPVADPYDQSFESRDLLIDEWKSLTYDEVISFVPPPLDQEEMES
hBChE, sequence (P06276 29-602): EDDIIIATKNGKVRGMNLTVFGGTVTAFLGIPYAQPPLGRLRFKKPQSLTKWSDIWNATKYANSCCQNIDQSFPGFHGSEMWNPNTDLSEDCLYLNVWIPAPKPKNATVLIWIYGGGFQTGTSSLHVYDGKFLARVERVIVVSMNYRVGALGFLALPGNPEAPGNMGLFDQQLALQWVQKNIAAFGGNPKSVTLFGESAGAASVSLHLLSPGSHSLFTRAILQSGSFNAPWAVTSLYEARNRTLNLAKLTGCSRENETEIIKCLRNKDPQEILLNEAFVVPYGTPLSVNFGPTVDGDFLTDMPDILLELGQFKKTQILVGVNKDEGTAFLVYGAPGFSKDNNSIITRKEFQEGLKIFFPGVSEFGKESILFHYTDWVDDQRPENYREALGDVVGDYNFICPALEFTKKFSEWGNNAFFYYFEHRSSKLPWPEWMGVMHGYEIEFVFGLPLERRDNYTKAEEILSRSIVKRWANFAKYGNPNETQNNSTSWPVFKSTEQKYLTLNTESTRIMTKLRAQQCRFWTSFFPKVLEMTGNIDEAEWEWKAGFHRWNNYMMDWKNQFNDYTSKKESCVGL

SMILES: CN(C)CCNC(=O)c1cc2c(cnn2CC2CCCCC2)cc1Cc1ccc(F)cc1F [Compound 95, 1-(Cyclohexylmethyl)-5-(2,4-difluorobenzyl)-N-(2-(dimethylamino)ethyl)-1H-indazole-6-carboxamide]
- RA @ 1000nM (ULK2): 77%
- RA @ 10000nM (ULK2): 75%
- RA @ 1000nM (RET): 100%
- RA @ 10000nM (RET): 100%
- RA @ 1000nM (MAPKAPK2): 100%
- RA @ 10000nM (MAPKAPK2): 100%
- RA @ 1000nM (PKACα): 100%
- RA @ 10000nM (PKACα): 94%
- RA @ 1000nM (MAP3K4): 100%
- RA @ 10000nM (MAP3K4): 60%
- RA @ 1000nM (KIT(D816V)): 96%
- RA @ 10000nM (KIT(D816V)): 94%
- RA @ 1000nM (EGFR): 100%
- RA @ 10000nM (EGFR): 100%
- RA @ 1000nM (MEK1): 98%
- RA @ 10000nM (MEK1): 100%
- RA @ 1000nM (CHEK1): 100%
- RA @ 10000nM (CHEK1): 100%
- IC50 (human p38α MAPK; [4]): 191 nM
- IC50 (human p38α MAPK; [5]): 191 ± 21 nM
- RA @ 1000nM (PAK2): 100%
- RA @ 10000nM (PAK2): 95%
- RA @ 1000nM (PIM2): 100%
- RA @ 10000nM (PIM2): 100%
- RA @ 1000nM (PRKCE): 79%
- RA @ 10000nM (PRKCE): 76%
- RA @ 1000nM (IGF1R): 100%
- RA @ 10000nM (IGF1R): 93%
- RA @ 1000nM (FAK): 92%
- RA @ 10000nM (FAK): 94%
- RA @ 1000nM (ADCK3): 100%
- RA @ 10000nM (ADCK3): 81%
- RA @ 1000nM (ERK 2): 100%
- RA @ 10000nM (ERK 2): 100%
- RA @ 1000nM (TSSK1B): 100%
- RA @ 10000nM (TSSK1B): 79%
- RA @ 1000nM (SNARK): 93%
- RA @ 10000nM (SNARK): 92%
- AUC0‑∞ ([1]; brain, 10 mg/kg i.p., mice): 51082.15 ng·min/mL(g)
- AUC0–t ([1]; brain, 10 mg/kg i.p., mice): 49811.92 ng·min/mL(g)
- t0.5λz ([1]; brain, 10 mg/kg i.p., mice): 89.51 min
- Cmax ([1]; brain): 343 ng/g
- MRT ([1]; brain): 128 min
- Tmax ([1]; brain): 15 min
- k el ([1]; brain): 0.000128 s⁻¹
- Kp [1]: 0.83
- AUC ([1]; serum): 1030 ng·h/mL
- AUC(0-t) ([1]; serum): 999 ng·h/mL
- CL/F ([1]; serum): 160 mL/min/kg
- Cmax ([1]; serum): 617 ng/mL
- MRT ([1]; serum): 118 min
- Tmax ([1]; serum): 15 min
- Vd/F ([1]; serum): 23.4 L/kg
- k el ([1]; serum): 0.000115 s⁻¹
- t0.5λz ([1]; serum, 10 mg/kg i.p., mice): 100.15 min
- RA @ 1000nM (RIOK2): 88%
- RA @ 10000nM (RIOK2): 81%
- RA at 100 µM (hAChE): 53 ± 1%
- RA @ 1000nM [2]: 94%
- RA @ 10000nM [2]: 94%
- RA @ 1000nM (MLK1): 100%
- RA @ 10000nM (MLK1): 90%
- RA @ 1000nM (ALK): 62%
- RA @ 10000nM (ALK): 92%
- RA @ 1000nM (ERK1): 96%
- RA @ 10000nM (ERK1): 90%
- RA @ 1000nM (p38γ): 100%
- RA @ 10000nM (p38γ): 99%
- RA @ 1000nM (TIE2): 90%
- RA @ 10000nM (TIE2): 100%
- RA @ 1000nM (PIK3CA): 100%
- RA @ 10000nM (PIK3CA): 100%
- motor adverse effects (locomotor activity test) [3]: no motor adverse effects
- RA @ 1000nM (p38δ): 100%
- RA @ 10000nM (p38δ): 100%
- RA @ 1000nM (FLT3): 100%
- RA @ 10000nM (FLT3): 100%
- RA @ 1000nM (CDK11): 92%
- RA @ 10000nM (CDK11): 100%
- RA @ 1000nM (PIM1): 100%
- RA @ 10000nM (PIM1): 94%
- RA @ 1000nM (BRAF(V600E)): 98%
- RA @ 10000nM (BRAF(V600E)): 100%
- RA @ 1000nM (PDGFRA): 92%
- RA @ 10000nM (PDGFRA): 92%
- RA @ 1000nM (AURKB): 99%
- RA @ 10000nM (AURKB): 71%
- IC50 (hBChE; [6]): 772 ± 57 nM
- IC50 (hBChE; [7]): 770 nM
- RA @ 1000nM (TRKA): 100%
- RA @ 10000nM (TRKA): 92%

SMILES: CC(C)Cn1ncc2cc(Cc3ccc(F)cc3F)c(C(=O)NCCN(C)C)cc21 [Compound 94, 5-(2,4-Difluorobenzyl)-N-(2-(dimethylamino)ethyl)-1-isobutyl-1H-indazole-6-carboxamide]
- RA @ 1000nM (ULK2): 71%
- RA @ 10000nM (ULK2): 88%
- RA @ 1000nM (RET): 100%
- RA @ 10000nM (RET): 100%
- RA @ 1000nM (MAPKAPK2): 100%
- RA @ 10000nM (MAPKAPK2): 84%
- RA @ 1000nM (PKACα): 100%
- RA @ 10000nM (PKACα): 96%
- RA @ 1000nM (MAP3K4): 49%
- RA @ 10000nM (MAP3K4): 100%
- RA @ 1000nM (KIT(D816V)): 94%
- RA @ 10000nM (KIT(D816V)): 100%
- RA @ 1000nM (EGFR): 98%
- RA @ 10000nM (EGFR): 69%
- RA @ 1000nM (MEK1): 98%
- RA @ 10000nM (MEK1): 74%
- RA @ 1000nM (CHEK1): 100%
- RA @ 10000nM (CHEK1): 100%
- IC50 (human p38α MAPK; [4]): 376 nM
- IC50 (human p38α MAPK; [5]): 377 ± 123 nM
- RA @ 1000nM (PAK2): 100%
- RA @ 10000nM (PAK2): 97%
- RA @ 1000nM (PIM2): 100%
- RA @ 10000nM (PIM2): 100%
- RA @ 1000nM (PRKCE): 80%
- RA @ 10000nM (PRKCE): 80%
- RA @ 1000nM (IGF1R): 94%
- RA @ 10000nM (IGF1R): 84%
- RA @ 1000nM (FAK): 96%
- RA @ 10000nM (FAK): 89%
- RA @ 1000nM (ADCK3): 100%
- RA @ 10000nM (ADCK3): 100%
- RA @ 1000nM (ERK 2): 100%
- RA @ 10000nM (ERK 2): 98%
- RA @ 1000nM (TSSK1B): 77%
- RA @ 10000nM (TSSK1B): 89%
- RA @ 1000nM (SNARK): 100%
- RA @ 10000nM (SNARK): 93%
- elimination half-life in brain compared to serum ([1]; 10 mg/kg i.p., mice): over 2 fold
- AUC0‑∞ ([1]; brain, 10 mg/kg i.p., mice): 50863.30 ng·min/mL(g)
- AUC0–t ([1]; brain, 10 mg/kg i.p., mice): 48459.19 ng·min/mL(g)
- t0.5λz ([1]; brain, 10 mg/kg i.p., mice): 210.94 min
- Cmax ([1]; brain): 658 ng/g
- MRT ([1]; brain): 102 min
- Tmax ([1]; brain): 15 min
- k el ([1]; brain): 5.5e-05 s⁻¹
- Kp [1]: 1.58
- AUC ([1]; serum): 536 ng·h/mL
- AUC(0-t) ([1]; serum): 532 ng·h/mL
- CL/F ([1]; serum): 310 mL/min/kg
- Cmax ([1]; serum): 946 ng/mL
- MRT ([1]; serum): 53.8 min
- Tmax ([1]; serum): 5 min
- Vd/F ([1]; serum): 46 L/kg
- k el ([1]; serum): 0.000112 s⁻¹
- AUC0–t ratio compound 94 to compound 95 ([1]; serum, 10 mg/kg i.p., mice): 0.53
- t0.5λz ([1]; serum, 10 mg/kg i.p., mice): 102.50 min
- RA @ 1000nM (RIOK2): 85%
- RA @ 10000nM (RIOK2): 92%
- RA at 100 µM (hAChE): 69 ± 4%
- RA @ 1000nM [2]: 86%
- RA @ 10000nM [2]: 65%
- RA @ 1000nM (MLK1): 100%
- RA @ 10000nM (MLK1): 100%
- RA @ 1000nM (ALK): 93%
- RA @ 10000nM (ALK): 83%
- RA @ 1000nM (ERK1): 87%
- RA @ 10000nM (ERK1): 87%
- RA @ 1000nM (p38γ): 93%
- RA @ 10000nM (p38γ): 94%
- RA @ 1000nM (TIE2): 100%
- RA @ 10000nM (TIE2): 100%
- RA @ 1000nM (PIK3CA): 77%
- RA @ 10000nM (PIK3CA): 95%
- motor adverse effects (locomotor activity test) [3]: no motor adverse effects
- RA @ 1000nM (p38δ): 97%
- RA @ 10000nM (p38δ): 100%
- RA @ 1000nM (FLT3): 100%
- RA @ 10000nM (FLT3): 90%
- RA @ 1000nM (CDK11): 100%
- RA @ 10000nM (CDK11): 89%
- RA @ 1000nM (PIM1): 95%
- RA @ 10000nM (PIM1): 100%
- RA @ 1000nM (BRAF(V600E)): 100%
- RA @ 10000nM (BRAF(V600E)): 100%
- RA @ 1000nM (PDGFRA): 96%
- RA @ 10000nM (PDGFRA): 76%
- RA @ 1000nM (AURKB): 84%
- RA @ 10000nM (AURKB): 68%
- IC50 (hBChE; [6]): 652 ± 112 nM
- IC50 (hBChE; [7]): 651 nM
- RA @ 1000nM (TRKA): 98%
- RA @ 10000nM (TRKA): 94%
